Results published in patent US20150105252A1, “SUBSTITUTED PYRAZOLES AS HERBICIDES” (E I DU PONT DE NEMOURS AND COMPANY, priority 2013, published 2015).

What was measured:
Test in all cases: Test C postemergence
kochia = format: in vivo, Kochia scoparia
Summary of the method: (§1)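 Seeds sown in loam–sand blend and treated preemergence with test chemicals in non-phytotoxic solvent with surfactant; postemergence plants in peat-based medium, treated at 2–18 cm (1- to 4-leaf stage). Greenhouse 13 to 15 days, then visual rating versus controls, 0 (no effect) to 100 (complete control).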

corn = format: in vivo, Zea mays
Summary of the method: as §1

morningglory = format: in vivo, Ipomoea coccinea
Summary of the method: as §1

oat, wild = format: in vivo, Avena fatua
Summary of the method: as §1

soybean = format: in vivo, Glycine max
Summary of the method: as §1

galium = format: in vivo, Galium aparine
Summary of the method: as §1

foxtail, giant = format: in vivo, Setaria faberii
Summary of the method: as §1

crabgrass, large = format: in vivo, Digitaria sanguinalis
Summary of the method: as §1

blackgrass = format: in vivo, Alopecurus myosuroides
Summary of the method: as §1

waterhemp = format: in vivo, Amaranthus rudis
Summary of the method: as §1

oilseed rape = format: in vivo, Brassica napus
Summary of the method: as §1

ragweed = format: in vivo, Ambrosia elation; settings: for Plant response rating, Ragweed: postemergence
Summary of the method: as §1

johnsongrass = format: in vivo, Sorghum halepense
Summary of the method: as §1

velvetleaf = format: in vivo, Abutilon theophrasti
Summary of the method: as §1

chickweed = format: in vivo, Stellaria media
Summary of the method: as §1

pigweed = format: in vivo, Amaranthus retroflexus
Summary of the method: as §1

nutsedge, yellow = format: in vivo, Cyperus esculentus
Summary of the method: as §1

ryegrass, Italian = format: in vivo, Lolium multiflorum; settings: for Plant response rating, Ryegrass, Italian: postemergence
Summary of the method: as §1

[1] = Postemergence, 31 g ai/ha, visually evaluated after 13 to 15 days
[2] = postemergence, 62 g ai/ha, scale 0 to 100
[3] = postemergence, 250 g ai/ha, scale 0 to 100 (0 no effect, 100 complete control)
[4] = postemergence, 125 g ai/ha, scale 0 to 100, 0 no effect, 100 complete control
[5] = 250 g ai/ha, scale 0 to 100 (0 no effect, 100 complete control)
[6] = 125 g ai/ha, scale 0 to 100, 0 no effect, 100 complete control

CCc1cc(C(=O)NC(C)C)nn1Cc1ccnc(C(F)(F)F)c1 [Compound 139]
Plant response rating (scale of 0 to 100 where 0 is no effect and 100 is complete control), Kochia (kochia; [1]): 60 | Kochia plant response rating (kochia; [2]): 75 | Plant response rating, Kochia (kochia; [3]): 85 | Plant response rating, Kochia (kochia; [4]): 85 | Plant response rating (scale of 0 to 100 where 0 is no effect and 100 is complete control), Corn (corn; [1]): 5 | Corn plant response rating (corn; [2]): 10 | Plant response rating, Corn (corn; [3]): 20 | Plant response rating, Corn (corn; [4]): 15 | Plant response rating (scale of 0 to 100 where 0 is no effect and 100 is complete control), Morningglory (morningglory; [1]): 60 | Morningglory plant response rating (morningglory; [2]): 60 | Plant response rating, Morningglory (morningglory; [3]): 80 | Plant response rating, Morningglory (morningglory; [4]): 90 | Plant response rating (scale of 0 to 100 where 0 is no effect and 100 is complete control), Oat, Wild (oat, wild; [1]): 10 | Oat, Wild plant response rating (oat, wild; [2]): 10 | Plant response rating, Oat, Wild (oat, wild; [3]): 40 | Plant response rating, Oat, Wild (oat, wild; [4]): 30 | Plant response rating (scale of 0 to 100 where 0 is no effect and 100 is complete control), Soybean (soybean; [1]): 15 | Plant response rating, Soybean (soybean; [3]): 85 | Soybean plant response rating (soybean; [4]): 55 | Plant response rating (scale of 0 to 100 where 0 is no effect and 100 is complete control), Galium (galium; [1]): 50 | Galium plant response rating (galium; [2]): 60 | Plant response rating, Galium (galium; [3]): 70 | Plant response rating, Galium (galium; [4]): 60 | Plant response rating (scale of 0 to 100 where 0 is no effect and 100 is complete control), Foxtail, Giant (foxtail, giant; [1]): 5 | Foxtail, Giant plant response rating (foxtail, giant; [2]): 5 | Plant response rating, Foxtail, Giant (foxtail, giant; [3]): 65 | Plant response rating, Foxtail, Giant (foxtail, giant; [4]): 10 | Plant response rating (scale of 0 to 100 where 0 is no effect and 100 is complete control), Crabgrass, Large (crabgrass, large; [1]): 10 | Crabgrass, Large plant response rating (crabgrass, large; [2]): 10 | Plant response rating, Crabgrass, Large (crabgrass, large; [3]): 20 | Plant response rating, Crabgrass, Large (crabgrass, large; [4]): 15 | Plant response rating (scale of 0 to 100 where 0 is no effect and 100 is complete control), Blackgrass (blackgrass; [1]): 20 | Blackgrass plant response rating (blackgrass; [2]): 20 | Plant response rating, Blackgrass (blackgrass; [3]): 35 | Plant response rating, Blackgrass (blackgrass; [4]): 20 | Plant response rating (scale of 0 to 100 where 0 is no effect and 100 is complete control), Waterhemp (waterhemp; [1]): 30 | Plant response rating, Waterhemp (waterhemp; [3]): 65 | Waterhemp plant response rating (waterhemp; postemergence, scale 0 to 100): 55 | Plant response rating (scale of 0 to 100 where 0 is no effect and 100 is complete control), Oilseed Rape (oilseed rape; [1]): 20 | Oilseed Rape plant response rating (oilseed rape; [2]): 45 | Plant response rating, Oilseed Rape (oilseed rape; [3]): 50 | Plant response rating, Oilseed Rape (oilseed rape; [4]): 50 | Plant response rating (scale of 0 to 100 where 0 is no effect and 100 is complete control), Ragweed (ragweed; [1]): 35 | Plant response rating, Ragweed (ragweed; [5]): 25 | Plant response rating, Ragweed (ragweed; [6]): 35 | Plant response rating (scale of 0 to 100 where 0 is no effect and 100 is complete control), Johnsongrass (johnsongrass; [1]): 5 | Johnsongrass plant response rating (johnsongrass; [2]): 5 | Plant response rating, Johnsongrass (johnsongrass; [3]): 20 | Plant response rating, Johnsongrass (johnsongrass; [4]): 10 | Plant response rating (scale of 0 to 100 where 0 is no effect and 100 is complete control), Velvetleaf (velvetleaf; [1]): 10 | Plant response rating, Velvetleaf (velvetleaf; [3]): 25 | Velvetleaf plant response rating (velvetleaf; postemergence, scale 0 to 100): 15 | Plant response rating (scale of 0 to 100 where 0 is no effect and 100 is complete control), Chickweed (chickweed; [1]): 60 | Chickweed plant response rating (chickweed; [2]): 60 | Plant response rating, Chickweed (chickweed; [3]): 80 | Plant response rating, Chickweed (chickweed; [4]): 65 | Plant response rating (scale of 0 to 100 where 0 is no effect and 100 is complete control), Pigweed (pigweed; [1]): 30 | Pigweed plant response rating (pigweed; [2]): 40 | Plant response rating, Pigweed (pigweed; [3]): 60 | Plant response rating, Pigweed (pigweed; [4]): 40 | Plant response rating (scale of 0 to 100 where 0 is no effect and 100 is complete control), Nutsedge, Yellow (nutsedge, yellow; [1]): 5 | Nutsedge, Yellow plant response rating (nutsedge, yellow; [2]): 5 | Plant response rating, Nutsedge, Yellow (nutsedge, yellow; [3]): 5 | Plant response rating, Nutsedge, Yellow (nutsedge, yellow; [4]): 5 | Plant response rating (scale of 0 to 100 where 0 is no effect and 100 is complete control), Ryegrass, Italian (ryegrass, Italian; [1]): 0 | Plant response rating, Ryegrass, Italian (ryegrass, Italian; [5]): 5 | Plant response rating, Ryegrass, Italian (ryegrass, Italian; [6]): 10
